Assay results: ChEMBL document CHEMBL1201862, “PubChem BioAssay data set” (2004)
Each block holds one molecule with its values, some of them ahead of it. Calls of active or inactive are those of the source.

What was measured:
[1] = molecular target: Melanin-concentrating hormone receptor 1 (Homo sapiens, UniProt Q99705); assay: Late-stage fluorescence-based counterscreen for antagonists of the G-protein coupled receptor 7 (GPR7): cell-based dose response assay to identify antagonists of the melanin-concentrating hormone receptor 1 (MCHR1) Set 6.; assay type: functional
Sequence of Melanin-concentrating hormone receptor 1 (Q99705 whole entry): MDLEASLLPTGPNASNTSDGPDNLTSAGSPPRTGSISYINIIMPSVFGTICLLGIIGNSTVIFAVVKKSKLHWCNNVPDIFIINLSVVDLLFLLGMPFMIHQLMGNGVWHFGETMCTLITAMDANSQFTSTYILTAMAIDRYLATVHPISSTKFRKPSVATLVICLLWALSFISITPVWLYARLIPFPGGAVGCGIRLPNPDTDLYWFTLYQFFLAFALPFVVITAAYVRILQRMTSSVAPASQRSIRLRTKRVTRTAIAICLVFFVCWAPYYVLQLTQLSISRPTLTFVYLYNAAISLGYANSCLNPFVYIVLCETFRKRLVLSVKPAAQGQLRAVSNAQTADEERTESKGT

[2] = molecular target: T1, Neuropeptides B/W receptor type 1 (Homo sapiens, UniProt P48145); assay: GPR7 antagonist potency, late-stage follow-up, cell-based, fluorescence, dose response, set 6 (AID 588583); assay type: functional
T1 sequence (P48145 whole entry): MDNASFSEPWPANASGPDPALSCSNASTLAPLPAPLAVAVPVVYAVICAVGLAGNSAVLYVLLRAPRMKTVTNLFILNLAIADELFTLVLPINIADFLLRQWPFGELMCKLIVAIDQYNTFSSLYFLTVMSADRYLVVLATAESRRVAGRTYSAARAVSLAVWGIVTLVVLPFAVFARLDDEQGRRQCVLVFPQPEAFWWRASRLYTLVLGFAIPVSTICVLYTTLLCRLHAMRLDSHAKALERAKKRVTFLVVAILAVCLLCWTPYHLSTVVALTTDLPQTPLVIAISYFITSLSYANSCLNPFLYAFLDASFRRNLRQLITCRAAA

[3] = molecular target: Ras and Rab interactor 1/Tyrosine-protein kinase ABL1 (Homo sapiens, UniProt P00519+Q13671); assay type: functional;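 further: biochemical TR-FRET dose-response test measuring inhibition of binding between Rin1 and Abl proteins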
Caspase-3 = molecular target: T2, Caspase-3 (Homo sapiens, UniProt P42574); assay: SAR Analysis of small molecule inhibitors of Sentrin-specific proteases (SENPs) using a Caspase-3 Selectivity assay. [Related pubchem assays (depositor defined):AID2540, AID2599, AID434973, AID489001]; assay type: functional
T2 sequence (P42574 whole entry): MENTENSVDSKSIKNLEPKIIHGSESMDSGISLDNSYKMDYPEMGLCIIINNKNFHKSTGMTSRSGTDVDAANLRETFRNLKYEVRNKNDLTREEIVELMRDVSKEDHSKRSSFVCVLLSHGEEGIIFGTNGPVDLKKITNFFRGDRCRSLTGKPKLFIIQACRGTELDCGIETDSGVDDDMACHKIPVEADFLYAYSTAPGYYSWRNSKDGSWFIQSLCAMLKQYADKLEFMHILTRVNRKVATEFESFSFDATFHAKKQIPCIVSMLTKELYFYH

[4] = molecular target: T3, Sentrin-specific protease 8 (Homo sapiens, UniProt Q96LD8); assay: SENP8 protease inhibitors, SAR follow-up, biochemical, luminescence (AID 504501); assay type: functional
T3 sequence (Q96LD8 whole entry): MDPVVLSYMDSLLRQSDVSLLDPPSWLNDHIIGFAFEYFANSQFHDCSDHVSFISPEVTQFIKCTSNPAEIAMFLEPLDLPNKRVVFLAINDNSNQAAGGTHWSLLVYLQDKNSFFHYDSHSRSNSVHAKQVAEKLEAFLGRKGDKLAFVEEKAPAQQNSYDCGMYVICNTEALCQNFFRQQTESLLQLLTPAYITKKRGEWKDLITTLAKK

[5] = molecular target: T4, Sentrin-specific protease 6 (Homo sapiens, UniProt Q9GZR1); assay: SAR Analysis of small molecule inhibitors of Sentrin-specific protease 6 (SENP6) using a Luminescent assay. [Related pubchem assays (depositor defined):AID2582, AID2599]; assay type: functional
T4 sequence (Q9GZR1 whole entry): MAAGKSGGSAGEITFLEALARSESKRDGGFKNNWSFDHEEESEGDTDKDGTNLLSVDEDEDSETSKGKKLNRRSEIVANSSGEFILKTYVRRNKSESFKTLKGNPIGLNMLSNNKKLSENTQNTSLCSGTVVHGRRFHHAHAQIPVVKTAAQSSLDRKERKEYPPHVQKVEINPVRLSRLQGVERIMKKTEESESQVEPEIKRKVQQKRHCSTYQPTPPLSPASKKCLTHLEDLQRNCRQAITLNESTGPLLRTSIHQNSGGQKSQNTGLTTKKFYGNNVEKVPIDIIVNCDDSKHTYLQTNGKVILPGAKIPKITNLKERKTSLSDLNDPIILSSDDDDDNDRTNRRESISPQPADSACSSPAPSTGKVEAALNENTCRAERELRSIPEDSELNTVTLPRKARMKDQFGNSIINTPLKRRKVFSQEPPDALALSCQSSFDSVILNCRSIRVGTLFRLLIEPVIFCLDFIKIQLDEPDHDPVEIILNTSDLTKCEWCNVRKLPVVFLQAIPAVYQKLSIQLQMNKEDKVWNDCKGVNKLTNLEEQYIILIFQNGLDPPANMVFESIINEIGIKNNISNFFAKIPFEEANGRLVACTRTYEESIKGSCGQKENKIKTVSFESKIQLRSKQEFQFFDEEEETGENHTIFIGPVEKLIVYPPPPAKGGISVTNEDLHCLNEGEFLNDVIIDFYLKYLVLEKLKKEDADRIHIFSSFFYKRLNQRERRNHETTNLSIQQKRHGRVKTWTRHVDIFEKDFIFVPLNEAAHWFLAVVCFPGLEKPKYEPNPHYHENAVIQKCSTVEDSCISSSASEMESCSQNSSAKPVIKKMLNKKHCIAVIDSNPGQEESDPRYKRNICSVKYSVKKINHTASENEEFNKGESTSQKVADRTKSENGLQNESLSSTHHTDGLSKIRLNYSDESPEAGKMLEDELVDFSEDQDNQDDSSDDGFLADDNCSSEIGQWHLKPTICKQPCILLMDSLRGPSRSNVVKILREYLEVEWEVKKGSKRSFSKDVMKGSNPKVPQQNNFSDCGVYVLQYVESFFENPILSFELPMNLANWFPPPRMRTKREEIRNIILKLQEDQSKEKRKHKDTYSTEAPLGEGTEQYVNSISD

[6] = molecular target: T5, Sentrin-specific protease 7 (Homo sapiens, UniProt Q9BQF6); assay: SENP7 protease inhibitors, SAR follow-up, biochemical, luminescence (AID 504497); assay type: functional
T5 sequence (Q9BQF6 whole entry): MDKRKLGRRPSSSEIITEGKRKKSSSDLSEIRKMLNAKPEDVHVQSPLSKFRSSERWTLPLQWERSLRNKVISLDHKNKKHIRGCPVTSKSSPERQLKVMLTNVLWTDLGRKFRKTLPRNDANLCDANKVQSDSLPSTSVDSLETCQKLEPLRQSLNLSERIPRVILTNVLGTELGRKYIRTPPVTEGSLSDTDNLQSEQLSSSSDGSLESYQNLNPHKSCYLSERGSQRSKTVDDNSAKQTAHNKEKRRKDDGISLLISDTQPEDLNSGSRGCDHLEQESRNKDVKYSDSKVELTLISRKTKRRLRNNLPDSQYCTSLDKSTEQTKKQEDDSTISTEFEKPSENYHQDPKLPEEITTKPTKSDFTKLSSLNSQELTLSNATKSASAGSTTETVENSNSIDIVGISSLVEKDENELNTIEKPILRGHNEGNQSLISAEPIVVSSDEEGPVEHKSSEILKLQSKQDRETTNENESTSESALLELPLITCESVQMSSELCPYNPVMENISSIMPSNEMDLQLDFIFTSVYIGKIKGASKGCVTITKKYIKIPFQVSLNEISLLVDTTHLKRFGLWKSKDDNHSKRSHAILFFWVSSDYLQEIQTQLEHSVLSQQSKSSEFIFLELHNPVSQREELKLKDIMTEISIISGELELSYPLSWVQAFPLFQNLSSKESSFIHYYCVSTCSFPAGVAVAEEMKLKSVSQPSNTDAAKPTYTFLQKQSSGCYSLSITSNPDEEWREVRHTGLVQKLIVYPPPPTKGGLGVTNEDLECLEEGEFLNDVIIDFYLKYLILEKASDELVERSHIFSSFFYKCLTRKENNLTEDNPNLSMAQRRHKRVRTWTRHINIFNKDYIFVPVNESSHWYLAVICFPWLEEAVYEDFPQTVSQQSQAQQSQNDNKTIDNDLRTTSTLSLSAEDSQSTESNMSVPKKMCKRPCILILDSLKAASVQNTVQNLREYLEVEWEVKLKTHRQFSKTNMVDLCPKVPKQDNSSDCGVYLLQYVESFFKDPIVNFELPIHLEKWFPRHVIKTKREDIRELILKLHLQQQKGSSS

Aurora kinase A = molecular target: T6, Aurora kinase A (Homo sapiens, UniProt O14965); assay type: functional;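 further: value from the Navigating the Kinome kinase panel profiling, panel entry STK6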
T6 sequence (O14965 whole entry): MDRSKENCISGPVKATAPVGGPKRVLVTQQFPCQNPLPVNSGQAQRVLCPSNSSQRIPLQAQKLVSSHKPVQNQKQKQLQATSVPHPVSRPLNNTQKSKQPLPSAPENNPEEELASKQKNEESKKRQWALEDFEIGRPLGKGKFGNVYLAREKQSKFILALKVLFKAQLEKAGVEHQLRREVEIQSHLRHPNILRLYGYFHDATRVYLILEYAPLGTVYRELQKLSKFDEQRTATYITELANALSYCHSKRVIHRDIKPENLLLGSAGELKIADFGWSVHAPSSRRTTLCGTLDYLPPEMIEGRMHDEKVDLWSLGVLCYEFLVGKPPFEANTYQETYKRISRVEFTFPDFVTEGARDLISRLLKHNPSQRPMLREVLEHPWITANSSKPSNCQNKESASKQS

Aurora kinase B = Aurora kinase B (Homo sapiens, UniProt Q96GD4); assay type: functional
Sequence of Aurora kinase B (Q96GD4 whole entry): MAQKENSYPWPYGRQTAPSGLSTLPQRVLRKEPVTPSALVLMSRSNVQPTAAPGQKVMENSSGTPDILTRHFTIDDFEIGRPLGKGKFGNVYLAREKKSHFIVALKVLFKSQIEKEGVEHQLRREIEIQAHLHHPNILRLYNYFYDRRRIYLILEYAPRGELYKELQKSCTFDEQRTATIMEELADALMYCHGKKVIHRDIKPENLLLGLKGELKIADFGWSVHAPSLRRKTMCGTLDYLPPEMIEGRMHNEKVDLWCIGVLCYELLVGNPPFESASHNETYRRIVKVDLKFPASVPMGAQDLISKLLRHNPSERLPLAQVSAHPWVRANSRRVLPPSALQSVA

[7] = molecular target: Vascular endothelial growth factor receptor 2 (Homo sapiens, UniProt P35968); assay type: functional
Sequence of Vascular endothelial growth factor receptor 2 (P35968 whole entry): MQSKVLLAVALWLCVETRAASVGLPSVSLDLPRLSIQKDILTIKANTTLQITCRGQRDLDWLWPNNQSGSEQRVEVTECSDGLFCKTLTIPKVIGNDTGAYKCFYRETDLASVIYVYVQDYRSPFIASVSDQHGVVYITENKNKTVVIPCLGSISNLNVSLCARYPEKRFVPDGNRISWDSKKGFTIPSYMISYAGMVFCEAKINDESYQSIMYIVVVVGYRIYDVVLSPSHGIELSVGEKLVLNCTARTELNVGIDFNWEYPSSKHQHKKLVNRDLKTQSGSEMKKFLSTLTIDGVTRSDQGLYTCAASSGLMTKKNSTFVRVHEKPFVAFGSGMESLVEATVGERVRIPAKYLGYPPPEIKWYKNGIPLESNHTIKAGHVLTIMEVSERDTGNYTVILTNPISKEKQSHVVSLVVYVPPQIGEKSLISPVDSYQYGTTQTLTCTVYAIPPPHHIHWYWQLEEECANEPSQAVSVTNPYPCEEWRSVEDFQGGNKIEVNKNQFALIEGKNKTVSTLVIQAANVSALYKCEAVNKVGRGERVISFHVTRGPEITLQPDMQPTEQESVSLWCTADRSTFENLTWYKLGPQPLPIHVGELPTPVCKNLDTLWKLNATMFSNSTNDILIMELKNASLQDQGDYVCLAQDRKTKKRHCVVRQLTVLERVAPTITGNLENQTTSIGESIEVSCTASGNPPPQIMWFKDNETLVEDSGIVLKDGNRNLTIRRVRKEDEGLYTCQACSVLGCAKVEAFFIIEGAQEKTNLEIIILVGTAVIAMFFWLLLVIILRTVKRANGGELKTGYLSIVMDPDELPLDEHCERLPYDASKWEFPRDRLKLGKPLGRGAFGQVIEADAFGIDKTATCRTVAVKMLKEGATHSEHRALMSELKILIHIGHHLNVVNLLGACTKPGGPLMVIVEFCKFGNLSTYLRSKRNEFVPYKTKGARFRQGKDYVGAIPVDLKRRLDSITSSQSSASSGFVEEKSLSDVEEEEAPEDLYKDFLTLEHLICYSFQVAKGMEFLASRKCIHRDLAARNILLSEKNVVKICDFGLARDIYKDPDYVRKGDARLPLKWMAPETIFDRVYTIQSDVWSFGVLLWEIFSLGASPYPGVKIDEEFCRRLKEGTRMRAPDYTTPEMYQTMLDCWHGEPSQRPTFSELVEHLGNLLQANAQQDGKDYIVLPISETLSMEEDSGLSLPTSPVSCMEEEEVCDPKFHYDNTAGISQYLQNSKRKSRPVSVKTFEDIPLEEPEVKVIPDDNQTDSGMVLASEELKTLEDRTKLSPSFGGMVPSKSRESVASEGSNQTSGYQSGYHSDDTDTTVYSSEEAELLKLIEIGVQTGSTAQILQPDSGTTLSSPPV

[8] = molecular target: Apoptotic protease-activating factor 1 (Homo sapiens, UniProt O14727); assay type: functional
Sequence of Apoptotic protease-activating factor 1 (O14727 whole entry): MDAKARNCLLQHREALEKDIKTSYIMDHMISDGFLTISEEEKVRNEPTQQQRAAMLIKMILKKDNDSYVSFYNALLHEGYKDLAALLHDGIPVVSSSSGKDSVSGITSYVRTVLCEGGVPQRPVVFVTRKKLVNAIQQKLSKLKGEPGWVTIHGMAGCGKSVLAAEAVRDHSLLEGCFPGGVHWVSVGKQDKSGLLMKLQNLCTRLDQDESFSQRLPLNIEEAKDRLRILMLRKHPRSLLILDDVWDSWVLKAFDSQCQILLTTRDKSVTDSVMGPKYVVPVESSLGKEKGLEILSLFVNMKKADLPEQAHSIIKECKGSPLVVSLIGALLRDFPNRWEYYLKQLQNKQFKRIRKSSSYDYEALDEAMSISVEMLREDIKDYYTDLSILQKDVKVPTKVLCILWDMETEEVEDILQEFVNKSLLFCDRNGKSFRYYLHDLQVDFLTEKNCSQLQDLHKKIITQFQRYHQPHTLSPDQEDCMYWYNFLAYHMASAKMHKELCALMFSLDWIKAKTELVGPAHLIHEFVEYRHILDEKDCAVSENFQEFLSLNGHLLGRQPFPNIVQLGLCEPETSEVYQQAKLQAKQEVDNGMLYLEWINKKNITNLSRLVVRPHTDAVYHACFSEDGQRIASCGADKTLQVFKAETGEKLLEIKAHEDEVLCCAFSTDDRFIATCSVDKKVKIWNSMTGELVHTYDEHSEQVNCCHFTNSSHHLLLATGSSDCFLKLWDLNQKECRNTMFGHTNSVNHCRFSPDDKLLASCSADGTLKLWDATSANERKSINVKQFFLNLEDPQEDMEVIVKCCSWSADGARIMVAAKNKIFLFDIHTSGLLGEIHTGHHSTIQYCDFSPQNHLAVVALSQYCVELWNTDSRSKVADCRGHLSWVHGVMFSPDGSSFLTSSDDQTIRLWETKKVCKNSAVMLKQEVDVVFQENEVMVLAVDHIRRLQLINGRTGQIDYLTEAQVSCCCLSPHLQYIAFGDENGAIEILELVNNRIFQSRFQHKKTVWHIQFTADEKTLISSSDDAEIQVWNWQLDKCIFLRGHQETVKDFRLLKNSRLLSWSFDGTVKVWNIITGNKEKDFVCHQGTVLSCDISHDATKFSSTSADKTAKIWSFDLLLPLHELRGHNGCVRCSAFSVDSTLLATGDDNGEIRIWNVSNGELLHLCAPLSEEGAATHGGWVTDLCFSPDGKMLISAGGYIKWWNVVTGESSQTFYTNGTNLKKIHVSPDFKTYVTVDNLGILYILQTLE

Cytochrome P450 2C9 = Cytochrome P450 2C9 (Homo sapiens, UniProt P11712)
Sequence of Cytochrome P450 2C9 (P11712 whole entry): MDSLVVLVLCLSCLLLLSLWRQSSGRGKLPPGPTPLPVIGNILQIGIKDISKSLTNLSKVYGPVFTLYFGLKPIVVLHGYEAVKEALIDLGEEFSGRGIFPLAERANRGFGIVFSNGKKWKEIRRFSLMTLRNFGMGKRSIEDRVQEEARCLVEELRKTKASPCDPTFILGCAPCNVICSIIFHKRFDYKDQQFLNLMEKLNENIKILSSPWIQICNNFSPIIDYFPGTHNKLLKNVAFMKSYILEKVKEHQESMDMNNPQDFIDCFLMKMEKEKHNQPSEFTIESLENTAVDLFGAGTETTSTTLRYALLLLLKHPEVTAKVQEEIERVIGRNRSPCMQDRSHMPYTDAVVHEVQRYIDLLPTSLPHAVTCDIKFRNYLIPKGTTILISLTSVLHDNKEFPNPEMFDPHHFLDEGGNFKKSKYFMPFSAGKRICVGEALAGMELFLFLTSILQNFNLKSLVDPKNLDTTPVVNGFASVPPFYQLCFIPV

Cytochrome P450 2D6 = Cytochrome P450 2D6 (Homo sapiens, UniProt P10635);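 further: CYP2D6 member of a cytochrome P450 panel assay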
Sequence of Cytochrome P450 2D6 (P10635 whole entry): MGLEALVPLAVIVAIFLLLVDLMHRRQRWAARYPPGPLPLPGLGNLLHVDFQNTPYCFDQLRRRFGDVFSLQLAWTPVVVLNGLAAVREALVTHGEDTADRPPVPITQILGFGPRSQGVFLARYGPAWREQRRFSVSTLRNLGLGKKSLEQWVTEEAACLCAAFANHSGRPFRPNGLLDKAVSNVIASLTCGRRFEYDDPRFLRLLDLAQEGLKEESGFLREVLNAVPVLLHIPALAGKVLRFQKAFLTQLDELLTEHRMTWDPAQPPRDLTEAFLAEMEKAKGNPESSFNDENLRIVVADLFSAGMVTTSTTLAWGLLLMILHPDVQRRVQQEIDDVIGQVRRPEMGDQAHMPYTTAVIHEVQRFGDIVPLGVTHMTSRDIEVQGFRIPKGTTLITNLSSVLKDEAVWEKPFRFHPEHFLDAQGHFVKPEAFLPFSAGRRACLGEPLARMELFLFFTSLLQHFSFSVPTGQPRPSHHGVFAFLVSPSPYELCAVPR

[9] = molecular target: T7, Mannose-6-phosphate isomerase (Homo sapiens, UniProt P34949); assay: human PMI inhibitors, high substrate, primary screen, biochemical, fluorescence intensity, high mannose 6-phosphate (AID 1220)
T7 sequence (P34949 whole entry): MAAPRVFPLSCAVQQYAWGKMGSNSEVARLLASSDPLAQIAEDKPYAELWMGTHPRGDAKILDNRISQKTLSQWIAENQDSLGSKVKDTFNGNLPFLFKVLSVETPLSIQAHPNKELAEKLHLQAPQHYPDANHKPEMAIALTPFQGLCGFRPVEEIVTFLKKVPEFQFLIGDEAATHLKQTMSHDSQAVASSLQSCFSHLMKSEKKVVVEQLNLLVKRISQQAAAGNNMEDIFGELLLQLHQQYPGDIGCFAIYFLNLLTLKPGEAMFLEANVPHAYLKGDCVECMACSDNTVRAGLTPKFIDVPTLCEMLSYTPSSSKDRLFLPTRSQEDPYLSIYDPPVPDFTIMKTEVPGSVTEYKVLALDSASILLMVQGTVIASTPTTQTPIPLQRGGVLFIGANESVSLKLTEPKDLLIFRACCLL

[10] = molecular target: Cyclin-dependent kinase 19 (Homo sapiens, UniProt Q9BWU1); assay: Navigating the Kinome. Panel member name: CDC2L6; assay type: functional
Sequence of Cyclin-dependent kinase 19 (Q9BWU1 whole entry): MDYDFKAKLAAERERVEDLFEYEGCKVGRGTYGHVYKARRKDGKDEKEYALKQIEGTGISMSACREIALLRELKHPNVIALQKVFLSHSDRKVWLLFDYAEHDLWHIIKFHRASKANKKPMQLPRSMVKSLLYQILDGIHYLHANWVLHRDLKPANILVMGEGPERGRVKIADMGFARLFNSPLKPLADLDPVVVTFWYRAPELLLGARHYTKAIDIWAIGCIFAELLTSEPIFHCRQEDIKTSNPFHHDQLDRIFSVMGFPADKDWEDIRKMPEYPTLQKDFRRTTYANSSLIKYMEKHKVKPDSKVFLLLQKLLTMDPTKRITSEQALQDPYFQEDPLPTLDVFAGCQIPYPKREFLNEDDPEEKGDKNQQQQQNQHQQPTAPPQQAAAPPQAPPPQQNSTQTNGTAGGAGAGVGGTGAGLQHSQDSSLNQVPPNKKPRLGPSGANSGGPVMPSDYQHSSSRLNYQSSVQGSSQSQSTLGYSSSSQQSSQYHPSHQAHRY

Compound: Oc1ncnc2c1C(c1ccccc1)c1c(O)ncnc1O2
IC50 [3]: 32 µM (inactive)

Compound: N#CC(c1nc2ccccc2s1)c1c(Cl)cnn(Cc2cccc3ccccc23)c1=O (stereo unspecified)
IC50 [1]: 0.186 µM (active)
IC50 [2]: 0.186 µM (active)

Compound: COc1cc(Nc2ncc(C(F)(F)F)c(N)n2)cc(OC)c1OC
Ki (Aurora kinase A): 0.2 µM (active)
Ki (Aurora kinase B): 0.0398 µM (active)
Ki [7]: 3.98 µM (active)

Compound: NC(=O)c1cccc2[nH]c(-c3ccc(N4CCN(Cc5ccccc5)CC4)nc3)nc12
Ki (Aurora kinase A): 0.501 µM (active)
Ki (Aurora kinase B): 0.02 µM (active)
Ki [7]: 2 µM (active)

Compound: O=C1OC(Nc2ccc3ncccc3c2)c2ccccc21 (stereo unspecified)
IC50 [8]: 32.9 µM (active)
IC50 [9]: > 50 µM (not active)

Further lines, with some results ahead:

IC50 [1]: 0.186 µM (active)
IC50 [2]: 0.186 µM (active)
Compound: N#CC(c1ccc(F)c(F)c1)c1c(Cl)cnn(Cc2cccc3ccccc23)c1=O (stereo unspecified)

IC50 (Caspase-3): 23.3 µM (active)
IC50 [5]: 7.59 µM (active)
IC50 [6]: 5.23 µM (active)
Compound: O=C(/C=C/c1ccc(OC2CSC2)cc1)c1ccccc1
IC50 [4]: 8.36 µM (active)

IC50 (Caspase-3): > 99 µM (inactive)
IC50 [5]: 17.5 µM (active)
IC50 [6]: 35 µM (active)
Compound: CN(C)c1cc(NN=Cc2ccco2)nc(N(C)C)n1
IC50 [4]: 75.6 µM (active)

IC50 [8]: 9.2 µM (active)
AC50 (Cytochrome P450 2C9): 1.26 µM (inconclusive)
AC50 (Cytochrome P450 2D6): 15.8 µM (inconclusive)
Compound: Cc1ccc(-c2nn3c(C)nnc3c3ccccc23)cc1S(=O)(=O)NCc1ccccc1

Ki [10]: > 100 µM (inactive)
Ki (Aurora kinase A): 0.0794 µM (active)
Compound: Cc1ccc(NC(=O)Nc2ccc(-c3c(C(C)C)sc4ncnc(N)c34)cc2)cc1
